In ChEMBL document CHEMBL5370659 (J Med Chem, 2023):
Values after ≈ are worked out from the molar mass of the structure shown.

Columns and labels:
[1] = biological target: T1, Tryptophan 5-hydroxylase 1 (Homo sapiens, UniProt P17752); test: Inhibition of recombinant MBP-tagged full length human THP1 using L-Trp as substrate assessed as formation of 5-HTP by measuring fluorescent property
T1 sequence (P17752 whole entry): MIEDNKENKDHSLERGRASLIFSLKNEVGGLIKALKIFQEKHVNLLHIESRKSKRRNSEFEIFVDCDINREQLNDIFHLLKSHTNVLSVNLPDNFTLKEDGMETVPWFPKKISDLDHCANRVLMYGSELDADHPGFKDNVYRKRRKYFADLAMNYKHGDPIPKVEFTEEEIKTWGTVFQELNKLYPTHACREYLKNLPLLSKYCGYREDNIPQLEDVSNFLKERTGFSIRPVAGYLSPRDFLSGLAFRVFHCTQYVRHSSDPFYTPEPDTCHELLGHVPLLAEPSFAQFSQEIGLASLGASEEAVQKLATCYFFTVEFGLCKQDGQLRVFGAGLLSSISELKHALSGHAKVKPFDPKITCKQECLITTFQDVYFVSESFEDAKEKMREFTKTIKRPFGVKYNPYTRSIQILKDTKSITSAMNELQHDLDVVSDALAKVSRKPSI

[2] = biological target: T2, Tryptophan 5-hydroxylase 2 (Homo sapiens, UniProt Q8IWU9); test: Inhibition of recombinant MBP-tagged full length human THP2 using L-Trp as substrate assessed as formation of 5-HTP by measuring fluorescent property
T2 sequence (Q8IWU9 whole entry): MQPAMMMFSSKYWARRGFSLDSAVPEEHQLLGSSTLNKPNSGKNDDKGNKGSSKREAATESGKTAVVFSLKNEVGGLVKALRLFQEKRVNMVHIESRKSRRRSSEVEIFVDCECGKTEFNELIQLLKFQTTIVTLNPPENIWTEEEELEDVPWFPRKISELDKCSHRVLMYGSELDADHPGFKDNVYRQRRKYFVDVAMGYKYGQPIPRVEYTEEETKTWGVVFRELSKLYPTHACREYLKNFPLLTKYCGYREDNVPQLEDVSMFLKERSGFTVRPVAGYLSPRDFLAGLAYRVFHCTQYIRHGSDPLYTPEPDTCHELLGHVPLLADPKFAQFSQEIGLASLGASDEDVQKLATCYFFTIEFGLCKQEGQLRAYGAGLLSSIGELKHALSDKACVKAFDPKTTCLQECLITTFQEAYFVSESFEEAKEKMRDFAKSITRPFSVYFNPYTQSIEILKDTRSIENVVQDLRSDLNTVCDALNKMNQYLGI

[3] = Aqueous solubility of the compound in pH 7.4 PBS buffer by HPLC-UV analysis; format: physicochemical
[4] = Plasma protein binding in human; format: ADME, cell-free; conditions: read-out: PPB (converted)
[5] = Plasma protein binding in rat; format: ADME, cell-free; conditions: read-out: PPB (converted)
[6] = Apparent permeability across apical to basal side in human Caco-2 cells at pH 6.5/7.4 measured at 5 uM by LC-MS/MS analysis; format: ADME, cell-based; conditions: Caco-2, pH 6.5
[7] = Apparent permeability across basal to apical side in human Caco-2 cells at pH 6.5/7.4 measured at 5 uM by LC-MS/MS analysis; format: ADME, cell-based; conditions: Caco-2, pH 6.5
[8] = Metabolic stability in human hepatocytes assessed as half life; format: ADME, cell-based, Hepatocyte
[9] = Metabolic stability in rat hepatocytes assessed as half life; format: ADME, cell-based, Hepatocyte
[10] = Metabolic stability in human hepatocytes assessed as intrinsic clearance; format: ADME, cell-based, Hepatocyte; conditions: read-out: CLH
[11] = Permeability across apical to basal side in MDCK-MDR1 cells at pH 6.5/7.4 measured at 5 uM by LC-MS/MS analysis; format: ADME, cell-based, Canis lupus familiaris; conditions: dog, MDCK-MDR1, pH 6.5
[12] = Permeability across basal to apical side in MDCK-MDR1 cells at pH 6.5/7.4 measured at 5 uM by LC-MS/MS analysis; format: ADME, cell-based, Canis lupus familiaris; conditions: dog, MDCK-MDR1, pH 6.5
[13] = Solubility in simulated intestinal fluid by HPLC-UV analysis; format: physicochemical
[14] = Solubility in simulated gastric fluid by HPLC-UV analysis; format: physicochemical
[15] = Metabolic stability in rat hepatocytes assessed as intrinsic clearance; format: ADME, cell-based, Hepatocyte; conditions: read-out: CLH

Row | Structure (SMILES) | IC50 [1] [nM] | IC50 [2] [nM] | solubility [3] [µM] | fraction unbound [4] | fraction unbound [5] | Papp A→B at 5 µM [6] [×10⁻⁶ cm/s] | Papp B→A at 5 µM [7] [×10⁻⁶ cm/s] | half-life [8] [min] | CLint scaled [10] [mL/min/kg] | further results
1 | CCn1c(=O)[nH]c(=O)c2c1nc(Cc1cn3cc(C)sc3n1)n2CC1CC1 | 100 | 23 | 173 (≈ 66.5 µg/mL) | 0.06 | 0.17 | 1.29 | 57 | 67 | 19 | t1/2 [9]: 42 min; Papp A→B at 5 µM [11]: 0.45 ×10⁻⁶ cm/s; Papp B→A at 5 µM [12]: 54 ×10⁻⁶ cm/s
2 | CCn1c(=O)[nH]c(=O)c2c1nc(Cc1cn3ccccc3n1)n2Cc1ccc(-c2ccn(C)n2)cc1 |  |  | > 200 | 0.39 | 0.29 | 2.3 | 46.3 | > 60 | < 115 | solubility [13]: > 200 µM; solubility [14]: > 200 µM; half-life [9]: 19 min; CLint scaled [15]: 367 mL/min/kg
3 | CCn1c(=O)[nH]c(=O)c2c1nc(Cc1cn3cc(Cl)sc3n1)n2Cc1ccc(-c2ccn(C)n2)cc1 |  |  | < 10 | 0.11 | 0.11 | 4.9 | 59.9 | 40 | 174 | solubility [13]: < 10 µM; solubility [14]: < 10 µM; half-life [9]: 8 min; CLint scaled [15]: 854 mL/min/kg
4 | CCn1c(=O)[nH]c(=O)c2c1nc(Cc1cn3cc(C)sc3n1)n2Cc1cc(C)cc(C)c1 | 113 | 34 |  |  |  |  |  |  |  | 
5 | CCn1c(=O)[nH]c(=O)c2c1nc(Cc1cn3c(n1)CCCC3)n2Cc1cccc(C(=O)NC[C@H](N)C(=O)OC)c1 | 880 | 58 |  |  |  |  |  |  |  | 
6 | CCn1c(=O)[nH]c(=O)c2c1nc(Cc1cn3cc(C)sc3n1)n2Cc1ccccc1 |  |  | 35.1 (≈ 14.8 µg/mL) | 0.24 | 0.21 | 24.7 | 53.9 | 22 | 315 | solubility [13]: 48.5 µM (≈ 20.4 µg/mL); solubility [14]: 177 µM (≈ 74.4 µg/mL); half-life [9]: 13 min; CLint scaled [15]: 514 mL/min/kg
7 | CCn1c(=O)[nH]c(=O)c2c1nc(Cc1cn3c(n1)CCCC3)n2Cc1cccc(C(=O)OC)c1 | 243 | 25 |  |  |  |  |  |  |  | 
8 | CCn1c(=O)[nH]c(=O)c2c1nc(Cc1cn3cc(Cl)sc3n1)n2Cc1ccccc1 |  |  | 3.7 (≈ 1.63 µg/mL) | 0.23 | 0.25 | 29.4 | 47.7 | > 60 | < 115 | solubility [13]: 12.7 µM (≈ 5.6 µg/mL); solubility [14]: 198 µM (≈ 87.1 µg/mL); half-life [9]: > 60 min; CLint scaled [15]: < 115 mL/min/kg
9 | CCn1c(=O)[nH]c(=O)c2c1nc(Cc1cn3cc(C)sc3n1)n2CC=C(C)C | 81 | 32 |  |  |  |  |  |  |  | 

Now from value to molecule, other results behind:

Row | IC50 [1] [nM] | IC50 [2] [nM] | solubility [3] [µM] | fraction unbound [4] | fraction unbound [5] | Papp A→B at 5 µM [6] [×10⁻⁶ cm/s] | Papp B→A at 5 µM [7] [×10⁻⁶ cm/s] | half-life [8] [min] | CLint scaled [10] [mL/min/kg] | Structure (SMILES) | further results
10 | 690 | 69 |  |  |  |  |  |  |  | CCn1c(=O)[nH]c(=O)c2c1nc(Cc1cn3cc(C)sc3n1)n2CCCC(=O)O | 
11 | > 10000 | > 10000 |  |  |  |  |  |  |  | CCn1c(=O)[nH]c(=O)c2c1nc(Cc1cn3cc(C)sc3n1)n2CC1CCN(C)CC1 | 
12 | 300 | 37 |  |  |  |  |  |  |  | CCOC(=O)Cn1c(Cc2cn3cc(C)sc3n2)nc2c1c(=O)[nH]c(=O)n2CC | 
13 | 394 | 152 |  |  |  |  |  |  |  | CCn1c(=O)[nH]c(=O)c2c1nc(Cc1cn3cc(C)sc3n1)n2CC1CCCCC1 | 
14 | 533 | 57 |  |  |  |  |  |  |  | CCn1c(=O)[nH]c(=O)c2c1nc(Cc1cn3cc(C)sc3n1)n2CCC(=O)OC | 
15 |  |  | > 200 | 0.85 | 0.82 | 9.3 | 5.7 | > 60 | < 115 | CCn1c(=O)[nH]c(=O)c2c1nc(Cc1cn3c(n1)CCCC3)n2Cc1ccccc1 | solubility [13]: > 200 µM; solubility [14]: 188 µM (≈ 75.8 µg/mL); half-life [9]: > 60 min; CLint scaled [15]: < 115 mL/min/kg
16 | > 10000 | > 10000 |  |  |  |  |  |  |  | CCn1c(=O)[nH]c(=O)c2c1nc(Cc1cn3cc(C)sc3n1)n2CC(=O)O | 
17 | 1670 | 176 |  |  |  |  |  |  |  | CCn1c(=O)[nH]c(=O)c2c1nc(Cc1cn3c(n1)CCCC3)n2Cc1cccc(C(=O)NC[C@H](N)C(=O)O)c1 | 
18 | 84 | 18 |  |  |  |  |  |  |  | CCn1c(=O)[nH]c(=O)c2c1nc(Cc1cn3cc(C)sc3n1)n2Cc1ccccn1 | 
